Laboratory results as given in patent publication US11110114B2, “Dinucleotides” (OXFORD UNIVERSITY INNOVATION LIMITED, priority 2017, dated 2021).
Where two headings read alike, the source gives them in different places. In the oligonucleotide strings, read from the 5' end, every base follows the letter of its sugar. An asterisk marks phosphorothioate; unmarked linkages are phosphodiester. Other units and linkages are bracketed, terminal groups are in braces. A string of capitals states the bases alone. [tz] = triazole internucleoside linkage; l = locked nucleic acid (LNA); [5mC] = 5-methylcytosine; d = 2'-deoxy (DNA)

Legend:
Type in all cases: binding
[1] = tested on: RNA Target 3′-rGAG UGM UAG ACG A; test: Mismatch discrimination by UV melting (Table 3)
Method: (§1) UV DNA melting curves were recorded in a Cary 4000 Scan UV-Visible Spectrophotometer using 3 μM of each oligonucleotide in a 10 mM phosphate buffer containing 200 mM NaCl at pH 7.0. Samples were annealed by heating to 85° C. (10° C./min) and then slowly cooling to 20° C. (1° C./min). As these six successive cycles (heating and cooling) were performed at a gradient of 1° C./min, the change in UV absorbance at 260 nm was recorded. The melting temperature was calculated from the 1st derivative of the melting curve using in built software.

[2] = tested on: RNA target 5′-rGCU GCA GGC GUC G (SEQ ID NO: 36); conditions: for Tm RNA target: pH 7
[3] = tested on: DNA target 5′-dGCT GCA GGC GTC G (SEQ ID NO: 35); conditions: for Tm DNA target: pH 7
[4] = tested on: DNA target: 5′-dGCT GGA GAG GTC G (SEQ ID NO: 39)
[5] = tested on: RNA Target 3′-rGCUGCGMACGUCG; test: Mismatch discrimination by UV melting, single triazole linkage MeC-T step (Table 6)
[6] = tested on: DNA target: 5′-dGCT GCA AGC GTC G (SEQ ID NO: 48); test: UV melting, single triazole linkage, DNA target (Table 8)
[7] = tested on: RNA target: 5′-rGCU GCA AGC GUC G (SEQ ID NO: 49); test: UV melting, single triazole linkage, RNA target (Table 8)
[8] = tested on: DNA target; 5′-dGCT AGA GAA GTC G (SEQ ID NO: 52); test: UV melting, two triazole linkages, DNA target (Table 9); conditions: two MeC-T steps
Method: as §1
(§2) Next, oligonucleotides incorporating two triazole inter-nucleotide linkage steps were prepared by templated CuAAC click ligation reactions in the presence of a complementary splint. The ligated oligonucleotides were purified by denaturating 20% polyacrylamide gel electrophoresis and were evaluated for their binding affinity for complementary DNA/RNA strands (Table 9). […] When compared to unmodified ON7, a drop of only 0.8° C./modification was observed (ON8, RNA target). […] Since the improvement in binding affinity is specific for DNA:RNA hybrids, triazole-linked LNA could find use in selective probes for RNA targeting.

[9] = tested on: RNA target; 5′-rGCU AGA GAA GUC G (SEQ ID NO: 18); test: UV melting, two triazole linkages, RNA target (Table 9); conditions: for TM RNA TARGET: two MeC-T steps
Method: as §1, §2

[10] = fully matched RNA target (M = A)
[11] = mismatch M = C, relative to the fully matched duplex (M = A)
[12] = mismatch M = G, relative to the fully matched duplex (M = A)
[13] = mismatch M = U, relative to the fully matched duplex (M = A)
[14] = 10 mM phosphate, 200 mM NaCl, pH 7.0, 3.0 μM each strand
[15] = relative to the unmodified duplex (ON1)

5′-CTC ACT ATC TG^MeCT (DNA dCdTdCdAdCdTdAdTdCdTdGd[5mC]dT) [ON100, reference compound]
TM M = A [1, 10]: 54.8 °C | ΔTM U ([1]; mismatch RNA target M = U, change in Tm relative to the fully matched duplex (M = A)): -11.3

5′-d CGACG^MeCp^MeCTGCAGC (DNA dCdGdAdCdGd[5mC]d[5mC]dTdGdCdAdGdC) [ON33, reference compound]
Tm RNA target [2]: 69.1 °C | Tm DNA target [3]: 68.7 °C

5′-d CGACG^MeCp^MeC^LTGCAGC (DNA dCdGdAdCdGd[5mC]l[5mC]dTdGdCdAdGdC) [ON34, reference compound]
ΔTm RNA target [2]: +5.6 | Tm RNA target [2]: 74.7 °C | ΔTm DNA target [3]: +3.3 | Tm DNA target [3]: 72 °C

5′-d CGACG^MeCt^MeCTGCAGC (DNA dCdGdAdCdGd[5mC][tz]d[5mC]dTdGdCdAdGdC) [ON12]
ΔTm RNA target [2]: -5.8 | Tm RNA target [2]: 63.4 °C | ΔTm DNA target [3]: -6.4 | Tm DNA target [3]: 62 °C

5′-dCGACG^MeCt^MeC^LTGCAGC (DNA dCdGdAdCdGd[5mC][tz]l[5mC]dTdGdCdAdGdC) [ON11]
ΔTm RNA target [2]: -0.5 | Tm RNA target [2]: 68.6 °C | ΔTm DNA target [3]: -5.1 | Tm DNA target [3]: 63.5 °C

5′-dCGA^MeCp^MeCTCT^MeCp^MeCAGC (DNA dCdGdAd[5mC]d[5mC]dTdCdTd[5mC]d[5mC]dAdGdC) [ON35, reference compound]
Tm DNA target [4]: 66.6 °C

5′-dCGA^MeCp^MeC^LTCT^MeCp^MeC^LAGC [ON36, reference compound]
Tm DNA target [4]: 72.2 °C | ΔTm/mod DNA target [4]: +2.8

5′-dCGA^MeCt^MeCTCT^MeCt^MeCAGC [ON14]
Tm DNA target [4]: 51.9 °C | ΔTm/mod DNA target [4]: -7.3

5′-dCGA^MeCt^MeC^LTCT^MeCt^MeC^LAGC [ON13]
Tm DNA target [4]: 56.4 °C | ΔTm/mod DNA target [4]: -5.1

CGACG^MeCTTGCAGC (dCdGdAdCdGd[5mC]dTdTdGdCdAdGdC) [ON1, unmodified 13-mer, reference compound]
TM M = A [5, 10]: 62.8 °C | ΔTM C [5, 11]: -16.3 | ΔTM G [5, 12]: -3.9 | ΔTM U [5, 13]: -13.7 | TM DNA TARGET [6, 14]: 64.2 °C | TM RNA TARGET [7, 14]: 62.8 °C

CGACG^MeCT^LTGCAGC (DNA dCdGdAdCdGd[5mC]lTdTdGdCdAdGdC) [ON4, reference compound]
TM M = A [5]: 68.9 °C | ΔTM C [5]: -15.2 | ΔTM G [5]: -4.8 | ΔTM U [5]: -13.7 | ΔTM DNA TARGET [6]: 3.3 °C | TM DNA TARGET ([6]; pH 7): 67.5 °C | ΔTM RNA TARGET [7]: 6.1 °C | TM RNA TARGET ([7]; pH 7): 68.9 °C

CGACG^MeC^LtTTGCAGC (dCdGdAdCdGl[5mC][tz]dTdTdGdCdAdGdC) [ON5, LNA on the 5′-side of the triazole]
TM DNA TARGET [6, 14]: 52.7 °C | ΔTM DNA TARGET [6, 15]: -11.5 °C | TM RNA TARGET [7, 14]: 55.5 °C | additional stabilising effect of LNA on the 5′-side of the triazole ([7]; DNA:RNA hybrids or DNA duplexes (Table 8)): no significant additional stabilising effect | ΔTM RNA TARGET [7, 15]: -7.2 °C

CGACG^MeC^LtT^LTGCAGC (DNA dCdGdAdCdGl[5mC][tz]lTdTdGdCdAdGdC) [ON6]
ΔTM DNA TARGET [6]: -5.8 | TM DNA TARGET ([6]; pH 7): 58.4 °C | additional stabilising effect of LNA on the 5′-side of the triazole [7]: no significant additional stabilising effect | ΔTM RNA TARGET [7]: +0.1 | TM RNA TARGET ([7]; pH 7): 62.9 °C

CGACG^MeCtTTGCAGC [ON3]
TM M = A [5, 10]: 56.6 °C | ΔTM C [5, 11]: -16.1 | ΔTM G [5, 12]: -2.2 | ΔTM U [5, 13]: -12.9 | TM DNA TARGET [6, 14]: 55.3 °C | ΔTM DNA TARGET [6, 15]: -8.9 °C | TM RNA TARGET [7, 14]: 56.6 °C | ΔTM RNA TARGET [7, 15]: -6.2 °C

CGACG^MeCtT^LTGCAGC (DNA dCdGdAdCdGd[5mC][tz]lTdTdGdCdAdGdC) [ON2]
TM M = A [5]: 62 °C | ΔTM C [5]: -15.6 | ΔTM G [5]: -3.3 | ΔTM U [5]: -13.4 | increase in thermal stability compared to the duplex containing only the triazole linkage [6]: 2.9 | ΔTM DNA TARGET [6]: −6.0 | TM DNA TARGET ([6]; pH 7): 58.2 °C | increase in Tm relative to the duplex with only the triazole linkage [7]: 5.4 | ΔTM RNA TARGET [7]: −0.8 | TM RNA TARGET ([7]; pH 7): 62 °C

CGA^MeCTTCT^MeCTAGC (dCdGdAd[5mC]dTdTdCdTd[5mC]dTdAdGdC) [ON7, unmodified 13-mer, reference compound]
TM DNA TARGET [8]: 57.1 °C | TM RNA TARGET [9]: 58.8 °C

CGA^MeCT^LTCT^MeCT^LAGC (dCdGdAd[5mC]lTdTdCdTd[5mC]lTdAdGdC) [ON10, two LNA, no triazole, reference compound]
TM DNA TARGET [8]: 62.2 °C | TM RNA TARGET [9]: 70.0 °C

CGA^MeCtTTCT^MeCtTAGC [ON9]
TM DNA TARGET [8]: 42.3 °C | TM RNA TARGET [9]: 47.1 °C

CGA^MeCtT^LTCT^MeCtT^LAGC [ON8]
TM DNA TARGET [8]: 48.0 °C | drop in Tm compared to unmodified ON7 ([9]; RNA target): 0.8 °C/modification | increase in Tm relative to oligonucleotides with two triazole linkages without 3′-LNA ([9]; RNA target, compare ON8 and ON9): 5.0 °C/modification | TM RNA TARGET [9]: 57.1 °C
